US20070274928A1, “Novel Cyclic Oxygenated Compounds Having Cooling, Fragrance, and Flavor Properties, and Uses Thereof” (priority 2003, published 2007)
“Also recorded” adds a separate entry of the source.

tested on: nasal cavity; experiment: Olfactory evaluation of neat sample, cooling sensory effect on smelling; format: in vivo, human; conditions: not given
Experimental: 10 ml of 20% NaOH in water were added to the 1 ml of ethanolic solution of 120 mg of the oil resulting from the Grignard reaction, and the whole was stirred at room temperature for 1 hour.
An analytically pure sample of a lactone having formula (129) was obtained by subjecting 30 mg of the fraction 2A sample to column chromatography on silica gel using hexane:ethyl acetate 8:1 as an eluent.

**Q.** Which “cooling sensory effect upon smelling the sample” value does the source give for `CC1CC2(C)OC(=O)CC2C1(C)C` (stereo not drawn) [(129)] here?
**A.** The value was “did not exhibit any significant ability to impart the cooling sensation”.

tested on: mouth; experiment: Taste evaluation of aqueous solutions by mouth rinse (cooling sensory effect); format: in vivo, human; conditions: 5 ppm solution in purified water, 10 ml rinsed in mouth for 10 sec
Experimental: A 5 ppm solution of 98% pure ketone (10) in purified water was prepared. 10 ml of the solution was tasted by rinsing it in the mouth for 10 sec.
A series of solutions of a mixture of compounds (7) and (8) (approximately 60:40 ratio) were prepared in purified water for subsequent evaluation of cooling sensory effects and taste properties at different concentrations. The solutions were tasted by taking 10 ml of each sample in the mouth, rinsing the mouth for 30 seconds, and discarding the solution by spitting. The cooling sensory effects were recorded as extreme (5), strong (4), moderate (3), weak (2), or none (1), and the ranks were noted over a period of time of 4 hours. Only one sample was tasted per day. All samples were kept in a refrigerator until the taste evaluation and were brought to room temperature before tasting.

**Q.** With `CC(C)=CC1C(=O)C=C(C)C1(C)C` (stereo not drawn) [(10)] as the compound, how does the cooling sensory effect read?
**A.** The cooling sensory effect was “no discernible cooling sensory effect”.

tested on: not listed separately; experiment: Organoleptic evaluation of cooling sensory effect of purified compounds; format: in vivo, human; conditions: pure / purified compound

**Q.** With `CC(C)=CC1C(=O)C=C(C)C1(C)C` (stereo not drawn) [(10)] as the compound, how does the cooling sensory effect read?
**A.** Its cooling sensory effect is “completely devoid of a cooling sensory effect”.

**Q.** With `CC1CCC(C(C)CO)C(=O)C1` (stereo not drawn) [(52)] as the compound, how does the cooling sensory effect read?
**A.** Its cooling sensory effect is “potent cooling properties”.

**Q.** With `CC1(C)CC2C(=O)CC(C)(O1)C2(C)C` (stereo not drawn) [(147)] as the compound, how does the cooling sensory effect read?
**A.** Its cooling sensory effect is “no significant cooling sensory effect”.

**Q.** With `CC1=C[C@]2(C)OC(=O)CC2C1(C)C` (stereo partly drawn) [compound (6)] as the compound, how does the cooling sensory effect read?
**A.** The cooling sensory effect was “lacks the cooling sensory effect”.

**Q.** For `CC1=CC2(O)OC(C)(C)CC2C1(C)C` (stereo not drawn) [compound (7)], which cooling sensory effect is on record?
**A.** Its cooling sensory effect is “powerful cooling effect; also recorded: very powerful cooling sensory effect”.

**Q.** Which cooling sensory effect does the source give for `CC1=CC(=O)C(CC(C)(C)O)C1(C)C` (stereo not drawn) [compound (8)] here?
**A.** Its cooling sensory effect is “relatively weak cooling effect”.

**Q.** With `CC1=CC2(C)OC(C)(C)CC2C1(C)C` (stereo not drawn) [compound (11)] as the compound, how does the cooling sensory effect read?
**A.** Its cooling sensory effect is “devoid of cooling sensory properties”.

**Q.** For `CC1CC2(O)OC(C)(C)CC2C1(C)C` (stereo not drawn) [compound (15)], which cooling sensory effect is on record?
**A.** The cooling sensory effect was “moderate to strong cooling sensory effect”.

**Q.** For `CC1CC(=O)C(CC(C)(C)O)C1(C)C` (stereo not drawn) [compound (16)], which cooling sensory effect is on record?
**A.** Its cooling sensory effect is “weak cooling sensory effect”.

tested on: tongue; experiment: Application of 5% solution to the tongue; format: in vivo, human; conditions: 0.1 ml of a 5% solution applied to the tongue
Experimental: 3.66 grams of compound (5), 10 ml of water, 5 ml of ethanol, and 1.70 g of sodium bicarbonate were stirred together at room temperature until evolution of carbon dioxide ceased (approximately 30 min). The whole was evaporated under reduced pressure at 85° C. until a constant weight was reached. The resulting transparent solid (4.4 g) was sodium ketocampholenate monohydrate.

**Q.** Which “duration of tingling-tangy sensation” value does the source give for sodium ketocampholenate monohydrate here?
**A.** Its value is “about 10 min”.
